Measurements as given in patent US20260062430A1, “INHIBITORS OF KIF18A AND USES THEREOF” (ACCENT THERAPEUTICS, INC., priority 2022, published 2026).
Like-named read-outs stand apart in the source and are kept apart here.

Tests used:
[1] = target: T1, KIF18A (Homo sapiens, UniProt Q8NI77); assay: KIF18A Biochemical Assay (ATPase, ADP-Glo)
T1 construct: A solution of KIF18A (0.4 nM, 5 μL/well; 1-367) in assay buffer
T1 sequence (Q8NI77 1-367): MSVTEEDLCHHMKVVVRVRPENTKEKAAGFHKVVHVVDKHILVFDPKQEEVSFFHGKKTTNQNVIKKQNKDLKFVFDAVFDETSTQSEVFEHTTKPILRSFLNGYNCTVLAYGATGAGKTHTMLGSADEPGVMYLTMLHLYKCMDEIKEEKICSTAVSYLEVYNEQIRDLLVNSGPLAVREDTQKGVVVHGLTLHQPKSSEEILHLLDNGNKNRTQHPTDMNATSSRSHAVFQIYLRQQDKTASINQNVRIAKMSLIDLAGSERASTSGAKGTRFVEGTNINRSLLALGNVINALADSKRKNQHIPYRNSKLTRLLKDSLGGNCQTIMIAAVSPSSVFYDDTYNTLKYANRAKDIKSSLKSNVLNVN

[2] = system: OVCAR-3 cells; assay: In vitro anti-proliferative activity assay in cancer cell line OVCAR-3 (CTG); type: cell-based; conditions: 7-day assay, read-out: OVCAR-3 cellular antiproliferation assay IC50
[3] = Caco-2 permeation assay (bidirectional permeability); type: in vitro ADME; conditions: human, Caco-2, pH 7.4
Protocol: Samples were analyzed through LC/MS/MS for estimating the apparent permeability coefficients (Papp) of compounds across Caco-2 cell monolayers. Caco-2 cells (American Type Culture Collection) were incubated and seeded onto HTS Transwell-96 Well Permeable Supports (Corning Corporation) for 14 days using a cell medium consisting of Dulbecco's Modified Eagle's Medium (DMEM) with high glucose and L-glutamine supplemented with 10% FBS, 1× penicillin-streptomycin mixture and 1×non-essential amino acids (NEAA). Cell monolayer integrity was measured using an automated tissue resistance measuring system (World Precision Instruments). Stock solutions of compounds and control compounds in DMSO were diluted with HBSS (10 mM HEPES, pH 7.4) to reach a final concentration of 5 μM with a final concentration of DMSO<0.1%. HBSS was then removed after 30 minutes of preincubation, and 75 μL of test compound was added to the apical compartment of the Transwell insert. The basolateral compartment was filled with 235 μL of HBSS (10 mM HEPES, pH 7.4) containing 2% BSA. Rate of drug transport in the basolateral to apical direction was obtained by adding 235 μL of test compound to the receiver plate wells (basolateral compartment) and filling with 75 μL of HBSS (10 mM HEPES, pH 7.4) containing 2% BSA. Time 0 samples were prepared by transferring 25 μL of […] working solution to wells of the 96-deepwell plate containing 25 μL HBSS (10 mM HEPES and 2% BSA, pH 7.4), followed by the addition 200 μL of cold methanol containing appropriate internal standards (100 nM alprazolam, 200 nM labetalol, 200 nM caffeine and 200 nM diclofenac). After incubating at 37° C. for 2 h, 25 μL samples from donor sides (apical compartment) were transferred to a 96-well plate containing 25 μL HBSS (10 mM HEPES and 2% BSA, pH 7.4). 25 μL samples from receiver sides (basolateral compartment) were removed and transferred to a new plate containing 25 μL HBSS (10 mM HEPES, pH 7.4). 200 μL of cold methanol containing internal standards (100 nM alprazolam, 200 nM labetalol, 200 nM caffeine and 200 nM diclofenac) was added to terminate the reaction. Samples were vortexed for 5 minutes and then centrifuged at 3,220 g for 40 minutes. An aliquot of 100 μL of the supernatant is mixed with 100 μL of ultra-pure water for LC-MS/MS analysis. All incubations are performed in duplicate. Solutions were discarded from the transwell plate. 100 μL Lucifer Yellow solution ([…] in HBSS) was added to each well of transwell insert and 300 μL of HBSS to each well of receiver. After incubating at 37° C. for 30 minutes, 80 μL was aliquoted from each well of apical and basolateral sides to a solid black plate. The plate was then read with Tecan Infinite™ M 200 (Excitation/Emission wavelength […]).
All calculations were carried out using Microsoft Excel. Peak areas were determined from extracted ion chromatograms. The leakage of Lucifer Yellow, in unit of percentage (%), can be calculated using the following equation: […]
LY leakage of <1% is acceptable to indicate the well-qualified Caco-2 monolayers. The apparent permeability coefficient (Papp), in units of centimeter per second, can be calculated for Caco-2 drug transport assays using the following equation: […]
Where VA is the volume (in mL) in the receiver well (0.235 mL for Ap→Bl flux and 0.075 mL for Bl→Ap flux), Area is the surface area of the membrane (0.143 cm^2 for HTS Transwell-96 Well Permeable Supports), and time is the total transport time in seconds. The efflux ratio can be determined using the following equation: […]
Where Papp (B-A) indicates the apparent permeability coefficient in basolateral to apical direction, and Papp (A-B) indicates the apparent permeability coefficient in apical to basolateral direction.
The recovery can be determined using the following equation: […]

[4] = system: OVCAR-3 xenografts; assay: 28 day in vivo efficacy in OVCAR-3 xenografts; parameters: species or system female NOD SCID mice; conditions: 10 and 30 mg/kg QD, 28 days
Protocol: Experiments were performed in female NOD SCID mice (GenPharmatech Co.). Animals were allowed to acclimate for 7 days before the study. The general health of the animals were evaluated by a veterinarian, and complete health checks were performed prior to the study. General procedures for animal care and housing were in accordance with the standard, Commission on Life Sciences, National Research Council, Standard Operating Procedures (SOPs) of Pharmaron, Inc. The mice were kept in laminar flow rooms at constant temperature and humidity with 3-5 mice in each cage. Animals were housed in polycarbonate cages which had dimensions of 300×180×150 mm^3 and in an environmentally monitored, well-ventilated room maintained at a temperature of 23±3° C. and a relative humidity of 40%-70%. Fluorescent lighting provided illumination approximately 12 hours per day. […]
The OVCAR-3 (ATCC) tumor cell lines were maintained in vitro as a monolayer in RPMI 1640 medium supplemented with 20% heat inactivated FBS, at 37° C. in an atmosphere of 5% CO2 in air. The tumor cells were sub-cultured, not exceeding 4-5 passages, and cells growing in an exponential growth phase were harvested and counted for tumor inoculation. […]
The measurement of tumor size was conducted with a caliper and recorded twice per week. […]

[5] = In vivo pharmacokinetic evaluation in mouse; parameters: species or system female balb/c nude mice; conditions: female, balb/c nude, plasma, 3 mg/kg IV

Compound | IC50 [1] [nM] | IC50 ([2]; Homo sapiens, OVCAR-3, 168 h) [nM] | efflux ratio at 2 h, 5 μM [3] | clearance [5] [mL/min/kg] | other results
Cc1cc(NC(=O)c2c(F)cc(NS(=O)(=O)CCO)cc2N2CC[C@@]3(C)C[C@H]3C2)nc(N2CCC(F)(F)CC2)n1 (single isomer, unassigned) [Example 31b] | < 100 | – | – | – | –
Cc1cc(NC(=O)c2ccc(NS(=O)(=O)CCO)cc2N2CC[C@@]3(C(F)(F)F)C[C@H]3C2)nc(N2CCC(F)(F)CC2)n1 [Example 85] | < 100 | 100 to 500 | – | – | –
Cc1cc(NC(=O)c2ccc(NS(=O)(=O)N(C)CCO)cc2N2CC[Si](C)(C)CC2)nc(C2CCC(F)(F)CC2)n1 [Example 134] | < 100 | 100 to 500 | < 10 | – | –
Cc1cc(NC(=O)c2ccc(NS(=O)(=O)CCO)cc2N2CC[C@@]3(C(F)F)C[C@H]3C2)nc(N2CCC(F)(F)CC2)n1 (single isomer, unassigned) [Example 29b] | – | – | – | 3.3 | Tumor growth [4]: significant reduction in tumor growth in a dose-dependent manner
C[Si]1(C)CCN(c2cc(NS(=O)(=O)CCO)ccc2C(=O)Nc2ccnc(OCCC(F)(F)F)n2)CC1 [Example 10] | – | – | < 10 | – | –
Cc1cc(NC(=O)c2ccc(NS(=O)(=O)NCCO)cc2N2CC[Si](C)(C)CC2)nc(C2CCC(F)(F)CC2)n1 [Example 117] | 100 to 500 | 100 to 500 | < 10 | – | –
Cc1cc(NC(=O)c2ccc(NS(=O)(=O)CCO)cc2N2CC[C@@]3(C)C[C@H]3C2)nc(C2CCC(F)(F)CC2)n1 [Example 63] | < 100 | < 100 | – | – | –
Cc1cc(NC(=O)c2ccc(NS(=O)(=O)CCO)cc2N2CC[C@]3(C)C[C@@H]3C2)nc(C2CCC(F)(F)CC2)n1 [Example 62] | < 100 | < 100 | < 10 | – | –
Cc1cc(NC(=O)c2ccc(NS(=O)(=O)CCO)cc2N2CC[Si](C)(C)CC2)nc(N2CCC(F)(F)CC2)n1 [Example 9, N-[2-(4,4-difluoropiperidin-1-yl)-6-methylpyrimidin-4-yl]-2-(4,4-dimethyl-1,4-azasilinan-1-yl)-4-(2-hydroxyethanesulfonamido)benzamide] | – | – | – | 1.7 | –
Cc1cc(NC(=O)c2ccc(NS(=O)(=O)CCO)cc2N2CC[Si](C)(C)CC2)nc(C2CCC(F)(F)CC2)n1 [Example 1, N-(2-(4,4-difluorocyclohexyl)-6-methylpyrimidin-4-yl)-2-(4,4-dimethyl-1,4-azasilinan-1-yl)-4-((2-hydroxyethyl)sulfonamido)benzamide] | – | – | – | 3.6 | –
O=C(Nc1ccnc(N2CCC(F)(F)CC2)n1)c1c(F)cc(NS(=O)(=O)CCO)cc1N1CC[C@@]2(C(F)F)C[C@H]2C1 [Example 84] | – | – | < 10 | – | IC50 [2]: 100 to 500 nM
Cc1cc(NC(=O)c2ccc(NS(=O)(=O)CCO)cc2N2CC[C@@]3(F)CC[C@H]3C2)nc(N2CCC(F)(F)CC2)n1 (single isomer, unassigned) [Example 50b] | – | – | – | 0.74 | –
Cc1cc(NC(=O)c2ccc(NS(=O)(=O)CCO)cc2N2CC[C@]3(C(F)(F)F)C[C@@H]3C2)nc(N2CCC(F)(F)CC2)n1 [Example 86] | < 100 | 100 to 500 | < 10 | – | –
